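A five-concentration, 48-hour dose response in 96-well plates underlies each endpoint, interpolated linearly between surrounding concentrations. At the GI50, growth is halved. Definition used: TGI = concentration required for complete inhibition of growth.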
Assays:
Experiment in all cases: NCI tumour cell line growth inhibition, 48 h
786-0 renal = test system: 786-0 renal
A498 renal = test system: A498 renal
A549 NSCLC = test system: A549 NSCLC
ACHN renal = test system: ACHN renal
BT-549 breast = test system: BT-549 breast
CAKI-1 renal = test system: CAKI-1 renal
CCRF-CEM leukemia = test system: CCRF-CEM leukemia
COLO 205 colon = test system: COLO 205 colon
DU-145 prostate = test system: DU-145 prostate
EKVX NSCLC = test system: EKVX NSCLC
HCT-116 colon = test system: HCT-116 colon
HCT-15 colon = test system: HCT-15 colon
HL-60(TB) leukemia = test system: HL-60(TB) leukemia
HOP-62 NSCLC = test system: HOP-62 NSCLC
HOP-92 NSCLC = test system: HOP-92 NSCLC
HS 578T breast = test system: HS 578T breast
HT29 colon = test system: HT29 colon
IGROV1 ovarian = test system: IGROV1 ovarian
K-562 leukemia = test system: K-562 leukemia
KM12 colon = test system: KM12 colon
LOX IMVI melanoma = test system: LOX IMVI melanoma
M14 melanoma = test system: M14 melanoma
MALME-3M melanoma = test system: MALME-3M melanoma
MCF7 breast = test system: MCF7 breast
MDA-MB-231 breast = test system: MDA-MB-231 breast
MDA-MB-435 = test system: MDA-MB-435
MOLT-4 leukemia = test system: MOLT-4 leukemia
NCI-H226 lung = test system: NCI-H226 lung
NCI-H23 lung = test system: NCI-H23 lung
NCI-H460 lung = test system: NCI-H460 lung
NCI-H522 lung = test system: NCI-H522 lung
NCI/ADR-RES ovarian = test system: NCI/ADR-RES ovarian
OVCAR-3 ovarian = test system: OVCAR-3 ovarian
OVCAR-4 ovarian = test system: OVCAR-4 ovarian
OVCAR-5 ovarian = test system: OVCAR-5 ovarian
OVCAR-8 ovarian = test system: OVCAR-8 ovarian
PC-3 prostate = test system: PC-3 prostate
RPMI-8226 leukemia = test system: RPMI-8226 leukemia
SF-268 CNS = test system: SF-268 CNS
SF-295 CNS = test system: SF-295 CNS
SF-539 CNS = test system: SF-539 CNS
SK-MEL-2 melanoma = test system: SK-MEL-2 melanoma
SK-MEL-28 melanoma = test system: SK-MEL-28 melanoma
SK-MEL-5 melanoma = test system: SK-MEL-5 melanoma
SK-OV-3 ovarian = test system: SK-OV-3 ovarian
SN12C renal = test system: SN12C renal
SNB-19 CNS = test system: SNB-19 CNS
SNB-75 CNS = test system: SNB-75 CNS
SR leukemia = test system: SR leukemia
SW-620 colon = test system: SW-620 colon
T-47D breast = test system: T-47D breast
TK-10 renal = test system: TK-10 renal
U251 CNS = test system: U251 CNS
UACC-257 melanoma = test system: UACC-257 melanoma
UACC-62 melanoma = test system: UACC-62 melanoma
UO-31 renal = test system: UO-31 renal

COc1ccc(N2CCN(C(=O)c3ccc(C(F)(F)F)nc3Nc3cc(Cl)ccc3C)CC2)cc1
GI50 (786-0 renal): 4.47 µM | TGI (786-0 renal): 16.8 µM | GI50 (A498 renal): 6.01 µM | TGI (A498 renal): 19.8 µM | GI50 (A549 NSCLC): 10.2 µM | TGI (A549 NSCLC): 27.7 µM | GI50 (ACHN renal): 7.78 µM | TGI (ACHN renal): 31.1 µM | GI50 (BT-549 breast): 10.2 µM | TGI (BT-549 breast): 23.7 µM | GI50 (CAKI-1 renal): 1.38 µM | TGI (CAKI-1 renal): 8.36 µM | GI50 (CCRF-CEM leukemia): 8.79 µM | TGI (CCRF-CEM leukemia): 38.5 µM | GI50 (COLO 205 colon): 11.4 µM | TGI (COLO 205 colon): 26.2 µM | GI50 (DU-145 prostate): 14.7 µM | TGI (DU-145 prostate): 31 µM | GI50 (EKVX NSCLC): 2.67 µM | TGI (EKVX NSCLC): 21.1 µM | GI50 (HCT-116 colon): 6.38 µM | TGI (HCT-116 colon): 19 µM | GI50 (HCT-15 colon): 7.71 µM | TGI (HCT-15 colon): 21.2 µM | GI50 (HL-60(TB) leukemia): 6.94 µM | TGI (HL-60(TB) leukemia): 28.6 µM | GI50 (HOP-62 NSCLC): 13.2 µM | TGI (HOP-62 NSCLC): 25.9 µM | GI50 (HOP-92 NSCLC): 1.49 µM | TGI (HOP-92 NSCLC): 7.97 µM | GI50 (HS 578T breast): 4.09 µM | TGI (HS 578T breast): 22.1 µM | GI50 (HT29 colon): 4.45 µM | TGI (HT29 colon): 18 µM | GI50 (IGROV1 ovarian): 0.0509 µM | TGI (IGROV1 ovarian): 20.3 µM | GI50 (K-562 leukemia): 4.76 µM | TGI (K-562 leukemia): 22.8 µM | GI50 (KM12 colon): 6.91 µM | TGI (KM12 colon): 20.8 µM | GI50 (LOX IMVI melanoma): 10.4 µM | TGI (LOX IMVI melanoma): 22.1 µM | GI50 (M14 melanoma): 10.6 µM | TGI (M14 melanoma): 22.6 µM | GI50 (MALME-3M melanoma): 10.6 µM | TGI (MALME-3M melanoma): 28.4 µM | GI50 (MCF7 breast): 2.88 µM | TGI (MCF7 breast): 21 µM | GI50 (MDA-MB-231 breast): 4.09 µM | TGI (MDA-MB-231 breast): 15.6 µM | GI50 (MDA-MB-435): 11.2 µM | TGI (MDA-MB-435): 27.5 µM | GI50 (MOLT-4 leukemia): 4.49 µM | TGI (MOLT-4 leukemia): 29.6 µM | GI50 (NCI-H226 lung): 14.3 µM | TGI (NCI-H226 lung): 36.3 µM | GI50 (NCI-H23 lung): 9.12 µM | TGI (NCI-H23 lung): 23.9 µM | GI50 (NCI-H460 lung): 6.11 µM | TGI (NCI-H460 lung): 21 µM | GI50 (NCI-H522 lung): 3.38 µM | TGI (NCI-H522 lung): 22.3 µM | GI50 (NCI/ADR-RES ovarian): 10.1 µM | TGI (NCI/ADR-RES ovarian): 27.3 µM | GI50 (OVCAR-3 ovarian): 2.98 µM | TGI (OVCAR-3 ovarian): 19 µM | GI50 (OVCAR-4 ovarian): 7.83 µM | TGI (OVCAR-4 ovarian): 29.9 µM | GI50 (OVCAR-5 ovarian): 10.6 µM | TGI (OVCAR-5 ovarian): 25.1 µM | GI50 (OVCAR-8 ovarian): 11.3 µM | TGI (OVCAR-8 ovarian): 38.7 µM | GI50 (PC-3 prostate): 5.44 µM | TGI (PC-3 prostate): 32.7 µM | GI50 (RPMI-8226 leukemia): 7.46 µM | TGI (RPMI-8226 leukemia): 49.2 µM | GI50 (SF-268 CNS): 7.04 µM | TGI (SF-268 CNS): 22.4 µM | GI50 (SF-295 CNS): 9.78 µM | TGI (SF-295 CNS): 27.9 µM | GI50 (SF-539 CNS): 10.7 µM | TGI (SF-539 CNS): 24.7 µM | GI50 (SK-MEL-2 melanoma): 0.949 µM | TGI (SK-MEL-2 melanoma): 19 µM | GI50 (SK-MEL-28 melanoma): 14 µM | TGI (SK-MEL-28 melanoma): 30.3 µM | GI50 (SK-MEL-5 melanoma): 8.02 µM | TGI (SK-MEL-5 melanoma): 20.8 µM | GI50 (SK-OV-3 ovarian): 4.67 µM | TGI (SK-OV-3 ovarian): 22.1 µM | GI50 (SN12C renal): 11.8 µM | TGI (SN12C renal): 24.4 µM | GI50 (SNB-19 CNS): 9.17 µM | TGI (SNB-19 CNS): 22.5 µM | GI50 (SNB-75 CNS): 3.66 µM | TGI (SNB-75 CNS): 22.6 µM | GI50 (SR leukemia): 4.65 µM | TGI (SR leukemia): 39 µM | GI50 (SW-620 colon): 10.5 µM | TGI (SW-620 colon): 22.4 µM | GI50 (T-47D breast): 2.8 µM | TGI (T-47D breast): 26.2 µM | GI50 (TK-10 renal): 15 µM | TGI (TK-10 renal): 34.6 µM | GI50 (U251 CNS): 9.37 µM | TGI (U251 CNS): 21.2 µM | GI50 (UACC-257 melanoma): 10.7 µM | TGI (UACC-257 melanoma): 28.3 µM | GI50 (UACC-62 melanoma): 8.15 µM | TGI (UACC-62 melanoma): 20.8 µM | GI50 (UO-31 renal): 1.69 µM | TGI (UO-31 renal): 10.9 µM
